Data published in US8192962B2, “Processes for detecting toxic substances” (Daikin Industries, Ltd., priority 2001, dated 2012).

Tested on: Energy system protein genes
Test: DNA chip mRNA expression in yeast, energy system protein genes (Table 4)
Format: cell-based, Saccharomyces cerevisiae S288C
Procedure, shortened: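 Whole-genome yeast DNA chip hybridization (65° C., >12 h) of Cy-labeled cDNA from S288C cells exposed 2 h at 25° C. to a sub-lethal toxicant dose in YPD; value is intensity relative to chemical-free control.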

SMILES: CCCCCCCCCCCCOS(=O)(=O)[O-].[Na+] [(18), sodium lauryl sulfate]
- The level of expressed mRNA in the presence of chemical substance/The level of expressed mRNA in the absence of chemical substance (yeast gene YAL060W): 1.8
- The level of expressed mRNA in the presence of chemical substance/The level of expressed mRNA in the absence of chemical substance (yeast gene YBL058W, cells incubated two hours with the chemical substance): 1.4
- The level of expressed mRNA in the presence of chemical substance/The level of expressed mRNA in the absence of chemical substance (yeast gene YBL099W, cells incubated two hours with the chemical substance): 1.2
- The level of expressed mRNA in the presence of chemical substance/The level of expressed mRNA in the absence of chemical substance (yeast gene YBR001C, cells incubated two hours with the chemical substance): 1.6
- The level of expressed mRNA in the presence of chemical substance/The level of expressed mRNA in the absence of chemical substance (yeast gene YBR185C, cells incubated two hours with the chemical substance): 1.3
- The level of expressed mRNA in the presence of chemical substance/The level of expressed mRNA in the absence of chemical substance (yeast gene YBR221C, cells incubated two hours with the chemical substance): 1.0
- The level of expressed mRNA in the presence of chemical substance/The level of expressed mRNA in the absence of chemical substance (yeast gene YCL040W): 1.7
- The level of expressed mRNA in the presence of chemical substance/The level of expressed mRNA in the absence of chemical substance (yeast gene YCR012W): 1.3
- The level of expressed mRNA in the presence of chemical substance/The level of expressed mRNA in the absence of chemical substance (yeast gene YCR046C, cells incubated two hours with the chemical substance): 1.0
- The level of expressed mRNA in the presence of chemical substance/The level of expressed mRNA in the absence of chemical substance (yeast gene YCR105W, cells incubated two hours with the chemical substance): 1.1
- The level of expressed mRNA in the presence of chemical substance/The level of expressed mRNA in the absence of chemical substance (yeast gene YDL021W): 3.2
- The level of expressed mRNA in the presence of chemical substance/The level of expressed mRNA in the absence of chemical substance (yeast gene YDL067C, cells incubated two hours with the chemical substance): 1.7
- The level of expressed mRNA in the presence of chemical substance/The level of expressed mRNA in the absence of chemical substance (yeast gene YDL078C, cells incubated two hours with the chemical substance): 2.0
- The level of expressed mRNA in the presence of chemical substance/The level of expressed mRNA in the absence of chemical substance (yeast gene YDL107W, cells incubated two hours with the chemical substance): 1.5
- The level of expressed mRNA in the presence of chemical substance/The level of expressed mRNA in the absence of chemical substance (yeast gene YDL174C): 4.0
- The level of expressed mRNA in the presence of chemical substance/The level of expressed mRNA in the absence of chemical substance (yeast gene YDL181W, cells incubated two hours with the chemical substance): 1.4
- The level of expressed mRNA in the presence of chemical substance/The level of expressed mRNA in the absence of chemical substance (yeast gene YDR001C): 1.6
- The level of expressed mRNA in the presence of chemical substance/The level of expressed mRNA in the absence of chemical substance (yeast gene YDR050C, cells incubated two hours with the chemical substance): 2.3
- The level of expressed mRNA in the presence of chemical substance/The level of expressed mRNA in the absence of chemical substance (yeast gene YDR079W, cells incubated two hours with the chemical substance): 1.3
- The level of expressed mRNA in the presence of chemical substance/The level of expressed mRNA in the absence of chemical substance (yeast gene YDR178W, cells incubated two hours with the chemical substance): 2.3
- The level of expressed mRNA in the presence of chemical substance/The level of expressed mRNA in the absence of chemical substance (yeast gene YDR231C): 1.3
- The level of expressed mRNA in the presence of chemical substance/The level of expressed mRNA in the absence of chemical substance (yeast gene YDR298C, cells incubated two hours with the chemical substance): 1.6
- The level of expressed mRNA in the presence of chemical substance/The level of expressed mRNA in the absence of chemical substance (yeast gene YDR377W, cells incubated two hours with the chemical substance): 2.5
- The level of expressed mRNA in the presence of chemical substance/The level of expressed mRNA in the absence of chemical substance (yeast gene YDR529C, cells incubated two hours with the chemical substance): 2.3
- The level of expressed mRNA in the presence of chemical substance/The level of expressed mRNA in the absence of chemical substance (yeast gene YEL024W, cells incubated two hours with the chemical substance): 1.5
- The level of expressed mRNA in the presence of chemical substance/The level of expressed mRNA in the absence of chemical substance (yeast gene YEL039C, cells incubated two hours with the chemical substance): 1.1
- The level of expressed mRNA in the presence of chemical substance/The level of expressed mRNA in the absence of chemical substance (yeast gene YER178W): 0.9
- The level of expressed mRNA in the presence of chemical substance/The level of expressed mRNA in the absence of chemical substance (yeast gene YFL057C): 1.3
- The level of expressed mRNA in the presence of chemical substance/The level of expressed mRNA in the absence of chemical substance (yeast gene YFR053C): 2.2
- The level of expressed mRNA in the presence of chemical substance/The level of expressed mRNA in the absence of chemical substance (yeast gene YGL018C, cells incubated two hours with the chemical substance): 1.0
- The level of expressed mRNA in the presence of chemical substance/The level of expressed mRNA in the absence of chemical substance (yeast gene YGL062W): 0.9
- The level of expressed mRNA in the presence of chemical substance/The level of expressed mRNA in the absence of chemical substance (yeast gene YGL187C, cells incubated two hours with the chemical substance): 2.4
- The level of expressed mRNA in the presence of chemical substance/The level of expressed mRNA in the absence of chemical substance (yeast gene YGL191W, cells incubated two hours with the chemical substance): 1.7
- The level of expressed mRNA in the presence of chemical substance/The level of expressed mRNA in the absence of chemical substance (yeast gene YGL205W, cells incubated two hours with the chemical substance): 9.1
- The level of expressed mRNA in the presence of chemical substance/The level of expressed mRNA in the absence of chemical substance (yeast gene YGL256W, cells incubated two hours with the chemical substance): 0.8
- The level of expressed mRNA in the presence of chemical substance/The level of expressed mRNA in the absence of chemical substance (yeast gene YGR008C): 4.2
- The level of expressed mRNA in the presence of chemical substance/The level of expressed mRNA in the absence of chemical substance (yeast gene YGR043C): 4.8
- The level of expressed mRNA in the presence of chemical substance/The level of expressed mRNA in the absence of chemical substance (yeast gene YGR062C, cells incubated two hours with the chemical substance, 25° C., YPD medium): 1.1
- The level of expressed mRNA in the presence of chemical substance/The level of expressed mRNA in the absence of chemical substance (yeast gene YGR087C, cells incubated two hours with the chemical substance): 0.6
- The level of expressed mRNA in the presence of chemical substance/The level of expressed mRNA in the absence of chemical substance (yeast gene YGR174C, cells incubated two hours with the chemical substance): 2.3
- The level of expressed mRNA in the presence of chemical substance/The level of expressed mRNA in the absence of chemical substance (yeast gene YGR192C): 1.3
- The level of expressed mRNA in the presence of chemical substance/The level of expressed mRNA in the absence of chemical substance (yeast gene YGR244C): 3.1
- The level of expressed mRNA in the presence of chemical substance/The level of expressed mRNA in the absence of chemical substance (yeast gene YGR254W): 1.2
- The level of expressed mRNA in the presence of chemical substance/The level of expressed mRNA in the absence of chemical substance (yeast gene YHR179W): 1.6
- The level of expressed mRNA in the presence of chemical substance/The level of expressed mRNA in the absence of chemical substance (yeast gene YIL160C): 3.0
- The level of expressed mRNA in the presence of chemical substance/The level of expressed mRNA in the absence of chemical substance (yeast gene YIR031C, cells incubated two hours with the chemical substance): 0.8
- The level of expressed mRNA in the presence of chemical substance/The level of expressed mRNA in the absence of chemical substance (yeast gene YJL052W): 1.9
- The level of expressed mRNA in the presence of chemical substance/The level of expressed mRNA in the absence of chemical substance (yeast gene YJL121C, cells incubated two hours with the chemical substance): 1.0
- The level of expressed mRNA in the presence of chemical substance/The level of expressed mRNA in the absence of chemical substance (yeast gene YJL166W, cells incubated two hours with the chemical substance): 4.0
- The level of expressed mRNA in the presence of chemical substance/The level of expressed mRNA in the absence of chemical substance (yeast gene YJL216C, cells incubated two hours with the chemical substance): 2.0
